The structures appear in SMILES notation.

Sequence of human α7 nAchR (P36544 23-502): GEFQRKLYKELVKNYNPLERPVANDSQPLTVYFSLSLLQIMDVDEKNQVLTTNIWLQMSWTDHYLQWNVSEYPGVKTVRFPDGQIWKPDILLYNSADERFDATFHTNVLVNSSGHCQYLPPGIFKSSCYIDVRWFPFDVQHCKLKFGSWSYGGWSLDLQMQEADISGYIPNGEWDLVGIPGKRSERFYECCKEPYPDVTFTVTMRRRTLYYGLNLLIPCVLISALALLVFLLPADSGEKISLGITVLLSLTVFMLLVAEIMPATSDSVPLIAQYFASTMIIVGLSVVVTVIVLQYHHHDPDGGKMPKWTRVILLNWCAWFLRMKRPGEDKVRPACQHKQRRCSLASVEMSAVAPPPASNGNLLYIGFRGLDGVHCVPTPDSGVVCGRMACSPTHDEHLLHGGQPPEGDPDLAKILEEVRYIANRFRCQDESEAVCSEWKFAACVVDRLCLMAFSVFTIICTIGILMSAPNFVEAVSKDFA

In this experiment the target is human α7 nAchR (Homo sapiens (Human), UniProt P36544). The experiment can be described thus: Human α7 nicotinic acetylcholine receptor [Ca2+]i assay (PAM, Ca2+ fluorometry). It counts as cell-based. The settings on record: Flp-In 293 cells expressing human α7 nAchR and human RIC-3; in presence of saturating agonist (mostly PNU-282987, 1 μM). The procedure:
Biological Activity Human α7 Nicotinic Acetylcholine Receptor [Ca^2+]i Assay
Cells: Flp-In 293 cells stably expressing human α7 nAchR and human RIC-3 (α7 cells, generated in house.)
Materials: 96-well plates coated with PDL (Falcon), culture medium, assay buffer, DMSO, FLIPR Calcium 5 kit (Molecular Devices), probenecid, agonist and PAM test compounds.
Brief Description of the Method (Ca^2+ Fluorometry)
α7 cells stably expressing human α7 nAchR were cultured in the medium detailed above, and were split twice a week. For the fluorometric measurements of cytosolic Ca^2+ ion concentration ([Ca^2+]i) cells were seeded in 96-well microplates at a density of 60000 cells/well and maintained overnight in a tissue culture incubator at 37° C. under an atmosphere of 95% air/5% CO2. The plating medium was identical with the culture medium. 50 μl of the growth medium was aspirated with a cell washer (BioTek Elx405UCVWS). Then 50 μl/well Calcium 5 kit diluted 2-fold in assay buffer was added manually using an 8-channel pipette. After an incubation period (20 minutes, 37° C.) 50 μl/well assay buffer containing vehicle (DMSO, 4% added) or reference α7 PAMs (4×of the final concentration) were added manually and the cells were incubated for an additional 10 minutes at 37° C. Baseline and agonist-evoked [Ca2+]i-changes were monitored with FlexStation II (Molecular Devices, Sunnyvale, Calif.), a plate reader fluorometer with integrated 8-channel fluid addition capability. Fluorescence measurements were carried out at 37° C. The dye was excited at 485 nm, emission was sampled at 525 nm at 1.4-s intervals. Baseline was recorded for 20 seconds followed by agonist stimulation. 50 μl 4× concentrated agonist solution was added to the cells using the pipettor of FlexStation II and fluorescence was monitored for an additional 40 seconds. Final DMSO concentration was 1% for all treatments. To achieve this, a series of DMSO stock solutions were prepared from all test compounds. These stocks were stored under 0° C. and were further diluted in assay buffer to obtain the desired final concentration immediately before the measurement. Agonist and PAM concentration-response studies were conducted in the presence of saturating concentrations of PAMs (mostly PNU-120596, 5 μM) and agonists (mostly PNU-282987, 1 μM), respectively. Results were expressed as ΔF/F values using SoftMax Pro software (Molecular Devices), where F was the resting fluorescence preceding agonist application and ΔF was the increase in fluorescence at a given time (ΔF=maximum fluorescence intensity values after stimulation minus average fluorescence intensity values before stimulation). In all experiments, all treatments were measured in multiple wells in parallel, and the mean ΔF/F values were used for analysis.
What is called EC50 is the concentration that produces a half-maximal response. Take `CCN1C(C(=O)Nc2ccc(C)c(C)c2)=CC(c2ccc(OC)c(OC)c2)=NS1(=O)=O` [Example 34]: the 50% effective concentration (EC50) is 130 nM.

`CCN1C(C(=O)Nc2ccc(Cl)c(OC)c2)=CC(c2ccc(OC)c(OC)c2)=NS1(=O)=O` [Example 35]: the EC50 amounted to 150 nM.

`CCN1C(C(=O)Nc2ccc(OC)c(Cl)c2)=CC(c2ccc(OC)c(OC)c2)=NS1(=O)=O` [Example 36]: the half-maximal effective concentration (EC50) amounted to 310 nM.

As for `CCN1C(C(=O)Nc2ccc(OC)cc2)=CC(c2ccc(OC)c(C(F)(F)F)c2)=NS1(=O)=O` [Example 38], the EC50 is 45 nM.

With `CCN1C(C(=O)Nc2cccc(C(F)(F)F)c2)=CC(c2ccc(OC)c(C(F)(F)F)c2)=NS1(=O)=O` [Example 39], the EC50 was found to be 150 nM.

As for `CCN1C(C(=O)Nc2cccc(C)c2)=CC(c2ccc(OC)c(C(F)(F)F)c2)=NS1(=O)=O` [Example 40], the EC50 turned out to be 60 nM.

Take `CCN1C(C(=O)Nc2ccc(C)cc2)=CC(c2ccc(OC)c(C(F)(F)F)c2)=NS1(=O)=O` [Example 41]: the EC50 stood at 100 nM.

As for `CCN1C(C(=O)Nc2cccc(OC)c2)=CC(c2ccc(OC)c(C)c2)=NS1(=O)=O` [Example 42], the EC50 was 120 nM.

Take `CCN1C(C(=O)Nc2ccc(OC)cc2)=CC(c2ccc(OC)c(C)c2)=NS1(=O)=O` [Example 43]: the EC50 was 110 nM.

As to `CCN1C(C(=O)Nc2cccc(C(F)(F)F)c2)=CC(c2ccc(OC)c(C)c2)=NS1(=O)=O` [Example 44], the EC50 was determined as 360 nM.

For the compound `CCN1C(C(=O)Nc2cccc(C)c2)=CC(c2ccc(OC)c(C)c2)=NS1(=O)=O` [Example 45], the EC50 turned out to be 210 nM.

On to `CCN1C(C(=O)Nc2ccc(C)cc2)=CC(c2ccc(OC)c(C)c2)=NS1(=O)=O` [Example 46], for which the concentration for a half-maximal effect (EC50) amounted to 170 nM.

For `CCN1C(C(=O)Nc2cccc(Cl)c2)=CC(c2ccc(OC)c(C)c2)=NS1(=O)=O` [Example 47], the half-maximal effective concentration (EC50) stood at 500 nM.

As to `CCN1C(C(=O)Nc2cccc(C(F)(F)F)c2)=CC(c2ccc(C(F)(F)F)c(OC)c2)=NS1(=O)=O` [Example 48], the EC50 is 330 nM.

Turning to `CCN1C(C(=O)Nc2cccc(C(F)(F)F)c2)=CC(c2ccc(C)c(OC)c2)=NS1(=O)=O` [Example 49], the concentration for a half-maximal effect (EC50) is 490 nM.

With `CCN1C(C(=O)Nc2cccc(C(F)(F)F)c2)=CC([C@H]2CC[C@H](C(F)(F)F)CC2)=NS1(=O)=O` [Example 50], the EC50 is 1100 nM.

As for `CCN1C(C(=O)Nc2cccc(C(F)(F)F)c2)=CC(C2CCC(F)(F)CC2)=NS1(=O)=O` [Example 51], the EC50 was 810 nM.

Turning to `CCN1C(C(=O)Nc2cccc(C(F)(F)F)c2)=CC([C@H]2CC3C[C@@H]3C2)=NS1(=O)=O` (stereo partly shown) [Example 52], the EC50 was 1600 nM.

For the compound `CN1C(C(=O)Nc2cccc(C(F)(F)F)n2)=CC([C@H]2CC[C@H](C(F)(F)F)CC2)=NS1(=O)=O` [Example 54], the concentration for a half-maximal effect (EC50) stood at 480 nM.

Take `CN1C(C(=O)Nc2cccc(C(F)(F)F)n2)=CC(C2CCC(F)(F)CC2)=NS1(=O)=O` [Example 55]: the 50% effective concentration (EC50) was determined as 470 nM.

With `CN1C(C(=O)Nc2cccc(F)n2)=CC(C2CCC(F)(F)CC2)=NS1(=O)=O` [Example 56], the EC50 was 2500 nM.

`CCN1C(C(=O)Nc2cccc(C(F)(F)F)c2F)=CC([C@H]2CC[C@H](C(F)(F)F)CC2)=NS1(=O)=O` [Example 57]: the EC50 is 2000 nM.

For `CCN1C(C(=O)Nc2cncc(C(F)(F)F)c2)=CC([C@H]2CC[C@H](C(F)(F)F)CC2)=NS1(=O)=O` [Example 58], the concentration giving a half-maximal response (EC50) came out at 1200 nM.

As to `CCN1C(C(=O)Nc2ccc(C(F)(F)F)cn2)=CC([C@H]2CC[C@H](C(F)(F)F)CC2)=NS1(=O)=O` [Example 59], the EC50 came out at 1300 nM.

`CCN1C(C(=O)Nc2cncc(C(F)(F)F)n2)=CC([C@H]2CC[C@H](C(F)(F)F)CC2)=NS1(=O)=O` [Example 60]: the EC50 came out at 300 nM.

Consider `CCN1C(C(=O)Nc2cccc(F)n2)=CC([C@H]2CC[C@H](C(F)(F)F)CC2)=NS1(=O)=O` [Example 61], for which the 50% effective concentration (EC50) was found to be 100 nM.

`CCN1C(C(=O)Nc2cc(Cl)ccn2)=CC([C@H]2CC[C@H](C(F)(F)F)CC2)=NS1(=O)=O` [Example 62]: the EC50 amounted to 2800 nM.

For the compound `CCN1C(C(=O)Nc2cncc(F)n2)=CC([C@H]2CC[C@H](C(F)(F)F)CC2)=NS1(=O)=O` [Example 63], the EC50 was determined as 190 nM.

`CCN1C(C(=O)Nc2ccnc(C(F)(F)F)n2)=CC([C@H]2CC[C@H](C(F)(F)F)CC2)=NS1(=O)=O` [Example 64]: the EC50 came out at 330 nM.

As to `CCN1C(C(=O)Nc2cccc(C(F)(F)F)n2)=CC([C@H]2CC[C@H](OC)CC2)=NS1(=O)=O` [Example 65], the EC50 came to 1100 nM.

Turning to `CCN1C(C(=O)Nc2cccc(C(F)(F)F)n2)=CC(C2CCCCCC2)=NS1(=O)=O` [Example 66], the EC50 was 430 nM.

Consider `CCN1C(C(=O)Nc2cccc(C(F)(F)F)n2)=CC([C@H]2CC[C@H](C)CC2)=NS1(=O)=O` [Example 67], for which the EC50 was found to be 220 nM.

For `CCN1C(C(=O)Nc2cccc(C(F)(F)F)n2)=CC(C2CCC(F)(F)CC2)=NS1(=O)=O` [Example 68], the EC50 was found to be 140 nM.

`CCN1C(C(=O)Nc2cncc(C(F)(F)F)n2)=CC(C2CCC(F)(F)CC2)=NS1(=O)=O` [Example 69]: the EC50 worked out at 1100 nM.

For `CCN1C(C(=O)Nc2cccc(F)n2)=CC(C2CCC(F)(F)CC2)=NS1(=O)=O` [Example 70], the EC50 was 620 nM.

With `CCN1C(C(=O)Nc2cccc(C(F)(F)F)n2)=CC([C@H]2CC3C[C@@H]3C2)=NS1(=O)=O` (stereo partly shown) [Example 71], the EC50 stood at 140 nM.

For the compound `CCN1C(C(=O)Nc2cccc(F)n2)=CC([C@H]2CC3C[C@@H]3C2)=NS1(=O)=O` (stereo partly shown) [Example 72], the half-maximal effective concentration (EC50) stood at 430 nM.

Turning to `CCN1C(C(=O)Nc2cccc(C(F)(F)F)n2)=CC(C2CCCCC2)=NS1(=O)=O` [Example 73], the EC50 is 390 nM.

As to `CCN1C(C(=O)Nc2cccc(F)n2)=CC(C2CCCCC2)=NS1(=O)=O` [Example 74], the EC50 stood at 1100 nM.

Take `CCN1C(C(=O)Nc2cccc(C(F)(F)F)n2)=CC(C2CC=CC2)=NS1(=O)=O` [Example 75]: the EC50 is 960 nM.

Take `CCN1C(C(=O)Nc2cccc(C#N)n2)=CC([C@H]2CC[C@H](C(F)(F)F)CC2)=NS1(=O)=O` [Example 76]: the half-maximal effective concentration (EC50) stood at 85 nM.

`CCN1C(C(=O)Nc2ccc(F)c(C)n2)=CC([C@H]2CC[C@H](C(F)(F)F)CC2)=NS1(=O)=O` [Example 77]: the EC50 came to 1500 nM.

In the case of `CCN1C(C(=O)Nc2cccc(C(C)(F)F)n2)=CC([C@H]2CC[C@H](C(F)(F)F)CC2)=NS1(=O)=O` [Example 78], the EC50 was determined as 790 nM.

Turning to `CCN1C(C(=O)Nc2ccnc(F)n2)=CC([C@H]2CC[C@H](C(F)(F)F)CC2)=NS1(=O)=O` [Example 79], the EC50 was 320 nM.

`CCN1C(C(=O)Nc2cccc(C(F)F)n2)=CC([C@H]2CC[C@H](C(F)(F)F)CC2)=NS1(=O)=O` [Example 80]: the EC50 came to 350 nM.

With `CC[C@@H](C)N1C(C(=O)Nc2cccc(C(F)(F)F)n2)=CC(c2ccc(OC)c(OC)c2)=NS1(=O)=O` [Example 81], the 50% effective concentration (EC50) was 120 nM.

Take `CC[C@H](C)N1C(C(=O)Nc2cccc(C(F)(F)F)n2)=CC(c2ccc(OC)c(OC)c2)=NS1(=O)=O` [Example 82]: the concentration for a half-maximal effect (EC50) was 120 nM.

Consider `COc1ccc(C2=NS(=O)(=O)N([C@H]3CCOC3)C(C(=O)Nc3cccc(C(F)(F)F)n3)=C2)cc1OC` [Example 83], for which the 50% effective concentration (EC50) amounted to 310 nM.

Turning to `COc1ccc(C2=NS(=O)(=O)N([C@@H]3CCOC3)C(C(=O)Nc3cccc(C(F)(F)F)n3)=C2)cc1OC` [Example 84], the EC50 is 130 nM.

`CCCn1ccc(NC(=O)C2=CC(c3ccc(OC)c(OC)c3)=NS(=O)(=O)N2C)n1` [Example 85, 5-(3,4-dimethoxyphenyl)-2-methyl-1,1-dioxo-N-(1-propyl-1H-pyrazol-3-yl)-2H-1λ^6,2,6-thiadiazine-3-carboxamide]: the EC50 amounted to 2000 nM.

For the compound `CCCCn1cc(NC(=O)C2=CC(c3ccc(OC)c(OC)c3)=NS(=O)(=O)N2C)cn1` [Example 86, N-(1-butyl-1H-pyrazol-4-yl)-5-(3,4-dimethoxyphenyl)-2-methyl-1,1-dioxo-2H-1λ^6,2,6-thiadiazine-3-carboxamide], the half-maximal effective concentration (EC50) stood at 2900 nM.

Turning to `CCN1C(C(=O)Nc2cccc(C(F)(F)F)n2)=CC(c2ccc(OC)c(C(F)(F)F)c2)=NS1(=O)=O` [Example 87, 2-ethyl-5-[4-methoxy-3-(trifluoromethyl)phenyl]-1,1-dioxo-N-[6-(trifluoromethyl)pyridin-2-yl]-2H-1λ^6,2,6-thiadiazine-3-carboxamide], the EC50 stood at 10 nM.
